Assay results taken from ChEMBL document CHEMBL4725230, “Syntheses and pharmacokinetic evaluations of four metabolites of 2-(4-(2-((1H-benzo[d]imidazol-2-yl)thio)ethyl)piperazin-1-yl)-N-(6-methyl-2,4-bis-(methylthio)pyridin-3-yl)acetamide hydrochloride [K-604], an acyl-CoA:cholesterol O-acyltransferase-1 inhibitor” (Bioorg Med Chem, 2020).

Assay: Retention time of the compound in human liver microsomes after 5 mins in presence of NADPH by LC-MS/MS analysis
Type: ADME, Microsome

CSc1cc(C)nc(SC)c1NC(=O)CN1CCN(CCSc2nc3cc(O)ccc3[nH]2)CC1
Retention_time: 3.21 min

CSc1cc(C)nc([S+](C)[O-])c1NC(=O)CN1CCN(CCSc2nc3ccccc3[nH]2)CC1 (stereo not drawn)
Retention_time: 2.73 min

CSc1nc(C)cc([S+](C)[O-])c1NC(=O)CN1CCN(CCSc2nc3ccccc3[nH]2)CC1 (stereo not drawn)
Retention_time: 3.37 min
